In general, inhibition refers to the change of the read-out against control, counted positive when it falls. Low readings indicate a response near the control, high ones a response far below the control. The term melting point denotes the temperature of the solid-liquid transition.

Our source for the IC50, inhibition and melting point values is patent publication US20020099035A1, “Method for preparing alpha-sulfonyl hydroxamic acid derivatives” (priority 2001, published 2002).

One data set deals with MMP13 (Homo sapiens, UniProt P45452). Put plainly: MMP13 inhibition. It counts as biochemical.
In data set [1] the target is T1, MMP1 (human recombinant fibroblast collagenase) (Homo sapiens, UniProt P03956).
T1 construct: human recombinant fibroblast collagenase (truncated, mw=18,828, WAR, Radnor)
T1 sequence (P03956 100-269 limits assumed): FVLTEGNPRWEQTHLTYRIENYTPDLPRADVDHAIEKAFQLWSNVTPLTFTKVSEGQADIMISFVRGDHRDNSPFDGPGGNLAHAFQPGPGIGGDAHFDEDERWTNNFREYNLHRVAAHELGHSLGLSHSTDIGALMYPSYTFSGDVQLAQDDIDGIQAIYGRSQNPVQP
Put plainly: In vitro collagenase assay (fluorogenic peptide substrate). The data set is classed as biochemical. To be noted: read-out: MMP1 (1C50). The procedure: The assay is based on the cleavage of a peptide substrate ((Dnp-Pro-Cha-Gly-Cyns(Me)-His-Ala-Lys(NMa)-NH2), Peptide International, Inc.) by collagenase releasing the fluorescent NMa group which is quantitated on the fluorometer. Dnp quenches the NMa fluorescence in the intact substrate. The assay is run in HCBC assay buffer (50 mM HEPES, pH 7.0, 5 mM Ca^+2, 0.02% Brij, 0.5% Cysteine), with human recombinant fibroblast collagenase (truncated, mw=18,828, WAR, Radnor). Substrate is dissolved in methanol and stored frozen in 1 mM aliquots. Collagenase is stored frozen in buffer in 25 μM aliquots. For the assay, substrate is dissolved in HCBC buffer to a final concentration of 10 μM and collagenase to a final concentration of 5 nM. Compounds are dissolved in methanol, DMSO, or HCBC. The methanol and DMSO are diluted in HCBC to <1.0%. Compounds are added to the 96 well plate containing enzyme and the reaction is started by the addition of substrate.
The reaction is read (excitation 340 nm, emission 444 nm) for 10 min. and the increase in fluorescence over time is plotted as a linear line. The slope of the line is calculated and represents the reaction rate.
(§1) The linearity of the reaction rate is confirmed (r^2>0.85). The mean (x±sem) of the control rate is calculated and compared for statistical significance (p<0.05) with drug-treated rates using Dunnett's multiple comparison test. […]

The target of data set [2] is T2, MMP9 (human neutrophil gelatinase B) (Homo sapiens, UniProt P14780).
T2 construct: from tissue; host or cells: human neutrophils
T2 sequence (P14780 94-707): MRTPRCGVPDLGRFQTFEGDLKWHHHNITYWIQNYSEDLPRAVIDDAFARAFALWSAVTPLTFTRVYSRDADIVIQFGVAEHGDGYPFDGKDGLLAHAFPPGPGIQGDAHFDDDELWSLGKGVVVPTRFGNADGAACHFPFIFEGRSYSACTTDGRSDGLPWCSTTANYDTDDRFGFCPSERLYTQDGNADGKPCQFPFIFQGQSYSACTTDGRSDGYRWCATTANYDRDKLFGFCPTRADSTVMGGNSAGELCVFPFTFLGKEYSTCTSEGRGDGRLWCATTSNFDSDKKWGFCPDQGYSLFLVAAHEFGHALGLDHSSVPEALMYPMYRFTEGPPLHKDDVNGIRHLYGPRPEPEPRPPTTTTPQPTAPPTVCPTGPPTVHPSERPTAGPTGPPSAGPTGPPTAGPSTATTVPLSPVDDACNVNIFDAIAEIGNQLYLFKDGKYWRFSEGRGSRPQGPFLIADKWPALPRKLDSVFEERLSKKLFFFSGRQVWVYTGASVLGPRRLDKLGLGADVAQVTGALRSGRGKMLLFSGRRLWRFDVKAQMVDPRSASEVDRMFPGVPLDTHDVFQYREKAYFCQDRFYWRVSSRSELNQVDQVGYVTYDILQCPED
Put plainly: In vitro gelatinase assay (thiopeptide substrate, DTNB). It counts as biochemical. The procedure:
The assay is based on the cleavage of the thiopeptide substrate ((Ac-Pro-Leu-Gly(2 mercapto-4 methyl-pentanoyl)-Leu-Gly-OEt), Bachem Bioscience) by the enzyme, gelatinase, releasing the substrate product which reacts calorimetrically with DTNB ((5,5′-dithio-bis(2-nitro-benzoic acid)). The enzyme activity is measured by the rate of the color increase.
The thiopeptide substrate is made up fresh as a 20 mM stock in 100% DMSO and the DTNB is dissolved in 100% DMSO as a 100 mM stock and stored in dark at room temperature. Both the substrate and DTNB are diluted together to 1 mM with substrate buffer (50 mM HEPES pH 7.5, 5 mM CaCl2) before use. The stock of human neutrophil gelatinase B is diluted with assay buffer (50 mM HEPES pH 7.5, 5 mM CaCl2, 0.02% Brij) to a final concentration of 0.15 nM. The assay buffer, enzyme, DTNB/substrate (500 μM final concentration) and vehicle or inhibitor are added to a 96 well plate (total reaction volume of 200 μl ) and the increase in color is monitored spectrophotometrically for 5 minutes at 405 nm on a plate reader.
The increase in OD405 is plotted and the slope of the line is calculated which represents the reaction rate.
as §1

The target of another data set is T3, TACE (Homo sapiens, UniProt P78536).
T3 construct: purchased Immunex
T3 sequence (P78536 215-824): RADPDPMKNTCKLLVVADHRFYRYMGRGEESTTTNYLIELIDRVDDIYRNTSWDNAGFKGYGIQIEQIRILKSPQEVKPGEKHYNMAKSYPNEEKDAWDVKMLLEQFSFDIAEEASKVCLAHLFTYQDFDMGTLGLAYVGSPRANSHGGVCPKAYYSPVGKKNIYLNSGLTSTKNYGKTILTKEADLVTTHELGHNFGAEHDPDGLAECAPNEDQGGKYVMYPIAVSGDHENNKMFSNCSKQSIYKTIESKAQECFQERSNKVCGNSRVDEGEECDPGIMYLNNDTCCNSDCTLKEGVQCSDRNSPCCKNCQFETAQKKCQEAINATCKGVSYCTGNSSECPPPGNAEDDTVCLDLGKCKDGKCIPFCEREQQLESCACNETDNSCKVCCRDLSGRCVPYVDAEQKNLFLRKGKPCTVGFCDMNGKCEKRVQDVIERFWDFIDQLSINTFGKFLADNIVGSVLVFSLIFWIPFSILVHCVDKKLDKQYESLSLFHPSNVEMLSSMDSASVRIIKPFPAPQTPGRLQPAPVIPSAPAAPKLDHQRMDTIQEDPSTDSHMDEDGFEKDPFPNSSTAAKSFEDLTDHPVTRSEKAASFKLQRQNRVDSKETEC
Put plainly: Procedure for measuring TACE inhibition (fluorescent peptidyl substrate). The data set is classed as biochemical. The procedure: […] The reaction is initiated by addition of a fluorescent peptidyl substrate (final concentration 100 μM) to each well and then shaking on a shaker for 5 sec.
The reaction is read (excitation 340 nm, emission 420 nm) for 10 min. and the increase in fluorescence over time is plotted as a linear line. The slope of the line is calculated and represents the reaction rate.
The linearity of the reaction rate is confirmed (r^2>0.85). The mean (x±sem) of the control rate is calculated and compared for statistical significance (p<0.05) with drug-treated rates using Dunnett's multiple comparison test. Dose-response relationships can be generate using multiple doses of drug and IC50 values with 95% CI are estimated using linear regression.

Counter-ions that a name gives are not always drawn.

On to `COc1ccc(S(=O)(=O)C2(C(=O)NO)CCCN(Cc3ccccc3)C2)cc1` (centres unmarked) [Example 18, 1-Benzyl-3-(4-methoxybenzenesulfonyl)piperidine-3-carboxylic acid hydroxamide], for which the IC50 against MMP13 was determined as 140 nM; in data set [1] it was 1300 nM; in data set [2], 732 nM. Further, at 10 µM the inhibition on TACE was 54%.
Consider `COc1ccc(S(=O)(=O)C2(C(=O)NO)CCCN(Cc3ccccc3)C2)cc1` (centres unmarked) (as salt: hydrochloride) [Example 18, 1-Benzyl-3-(4-methoxybenzenesulfonyl)piperidine-3-carboxylic acid hydroxamide], for which the melting point amounted to 132.9 °C.
